Tests used:
VEGF [1] = conditions: wet form of AMD, repeated intravitreal injections; cited from earlier work
[2] = test system: VEGFR receptors (VEGFR1 and VEGFR2), p-VEGFR2, VEGF; experiment: Western blot of the VEGF pathway in undifferentiated (pathological) ARPE-19 cells; type: cell-based, human; conditions: undifferentiated ARPE-19, 24 h, 20 μM resveratrol (R20) or equivalent (A20)
Procedure: Cells studied: culture of undifferentiated ARPE-19 (ATCC® CRL-2302™) (human retinal pigment epithelium) cells.
The cells were maintained at 37° C., and in the presence of 5% CO2 in the medium DMEM/F12 (GIBCO; 31331), completed with 10% FBS (Lonza) and 15 mM HEPES (pH 7.4; GIBCO).
b) Incubation Between the Compositions (Formula A or B) and the Cells: 1, 5, 10 or 20 μM.
The 10 μM equivalent from formula B also corresponding to 0.115 mg/mL of formula B in DMEM/F12+1% FBS w/o phenol red.
The day prior to treatment, the medium was eliminated and replaced by DMEM/F12 without phenol red (GIBCO; 21041), completed with 1% FBS (Lonza) and 15 mM HEPES (pH 7.4; GIBCO).
After 24 h of stimulation, the media were eliminated, the cells were washed with PBS 1× then scrubbed in PBS 1×. The cells were centrifuged and the remainder was resuspended in the RIPA buffer along with a cocktail of protease inhibitors (Roche) and phosphatase inhibitors. The cells were lysed in ice for 30 minutes, then centrifuged. The protein concentration was determined by means of a protein quantification kit (Lowry kit, biorad). […] The membranes were again washed 3 times in 0.1% PBS-T and the signal was detected by ECL (Tebu bio). The images were recorded with the ChemiDoc imaging system and analyzed with Quantity One Software (Biorad) software.
The β-actin was also quantified in order to relativize the levels of expression.

[3] = test system: VEGFR receptors (VEGFR1 and VEGFR2), p-VEGFR2, VEGF; experiment: Western blot of the VEGF pathway in differentiated (healthy) ARPE-19 cells; type: cell-based, human; conditions: differentiated ARPE-19, 24 h, 20 μM resveratrol (R20)
Procedure: The protocol used is the same as the one described in the example II-2, except for the cells studied: Cells studied: culture of differentiated ARPE-19 (human retinal pigment epithelium) cells. The undifferentiated cells are seeded in T75 flasks. The cells are maintained at 37° C., and in the presence of 5% CO2 in the medium DMEM/F12 (GIBCO; 31331), completed with 10% FBS (Lonza) and 15 mM HEPES (pH 7.4; GIBCO). When the cells reach confluence, the medium is replaced by DMEM/F12 (GIBCO; 31331), completed with 1% FBS (Lonza) and HEPES (15 mM pH 7.4; GIBCO). The media were changed 2 times per week for 8 weeks. Said cells can be equated with undamaged or healthy retinal cells.

VEGF [4] = conditions: in vitro, human retinal pigmentary epithelium cells (HRPE cells); cited from earlier work

pegaptanib
effect of the treatment (VEGF [1]): little effect

Oc1ccc(/C=C/c2cc(O)cc(O)c2)cc1 [resveratrol]
expression of VEGF receptors, resveratrol alone versus composition [2]: makes it possible to reduce the expression of VEGF receptors
effect on VEGF receptors of healthy cells, resveratrol alone [3]: has no effect on healthy cells
overexpression of VEGF induced by cytokines (VEGF [4]): inhibiting in vitro the overexpression of VEGF

B1: ranibizumab: VEGF inhibitor used since 2007 for the wet form of AMD (antibody, chains of the INN, looked up, V domains shown)
VH: EVQLVESGGGLVQPGGSLRLSCAASGYDFTHYGMNWVRQAPGKGLEWVGWINTYTGEPTYAADFKRRFTFSLDTSKSTAYLQMNSLRAEDTAVYYCAKYPYYYGTSHWYFDVWGQGTLVTVSS
VL: DIQLTQSPSSLSASVGDRVTITCSASQDISNYLNWYQQKPGKAPKVLIYFTSSLHSGVPSRFSGSGSGTDFTLTISSLQPEDFATYYCQQYSTVPWTFGQGTKVEIK
modifications: Fab
unresponsive or no longer responsive to the treatment (VEGF [1]): about 30%

From patent US10881638B2, “Eye health composition” (Laboratoires Thea, priority 2015, dated 2021)
